The results in this text go back to patent publication US20110319431A1, “Bis Aromatic Compounds for Use as LTC4 Synthase Inhibitors” (BIOLIPOX AB, priority 2009, published 2011).

For this assay, the target named is T1, Recombinant human LTC4 synthase (Homo sapiens, UniProt Q16873).
T1 construct: made in house; host or cells: Pichia pastoris
T1 sequence (Q16873 1-150): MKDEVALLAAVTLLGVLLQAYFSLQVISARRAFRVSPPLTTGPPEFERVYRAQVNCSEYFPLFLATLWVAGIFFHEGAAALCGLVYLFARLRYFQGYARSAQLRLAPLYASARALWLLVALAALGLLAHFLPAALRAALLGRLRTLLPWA
The assay is described as follows: In vitro LTC4 synthase assay (LTA4 to LTC4, HTRF detection). The class given is biochemical. The settings on record: for IC50: title compounds of the Examples; for inhibition at 10 µM: 5 min, total concentration of title compounds in the assay 10 μM. The protocol: In the assay, LTC4 synthase catalyses the reaction where the substrate LTA4 is converted to LTC4. Recombinant human LTC4 synthase is expressed in Piccia pastoralis and the purified enzyme is dissolved in 25 mM tris-buffer pH 7.8 supplemented with 0.1 mM glutathione (GSH) and stored at −80° C. The assay is performed in phosphate buffered saline (PBS) pH 7.4 and 5 mM GSH in 384-well plates.
The following is added chronologically to each well:
1. 48 μL LTC4 synthase in PBS with 5 mM GSH. The total protein concentration in this solution is 0.5 μg/mL. 2. 1 μL inhibitor in DMSO (final concentration 10 μM). 3. Incubation of the plate at room temperature for 10 min. 4. 1 μL LTA4 (final concentration 2.5 μM). 5. Incubation of the plate at room temperature for 5 min. 6. 10 μL of the incubation mixture is analysed using homogenous time resolved fluorescent (HTRF) detection.
(In general: Time-resolved FRET reads energy transfer from a long-lived donor to a nearby acceptor.)

What is called IC50 is the concentration that inhibits the measured activity by half. The inhibition is how much of the control response was suppressed.

Take `CN(c1ccc(Cl)cc1)c1ccc(C(=O)c2cc(Sc3cccc(OC(F)(F)F)c3)cc(C(=O)O)c2)cc1` [2:28, 3-(4-((4-Chlorophenyl)(methyl)amino)benzoyl)-5-(3-(trifluoromethoxy)phenylsulfanyl)benzoic acid]: the IC50 was found to be 0.148 µM.
Consider `CN(c1ccc(Cl)cc1)c1ccc(C(=O)c2ccc(S(=O)(=O)c3ccc(Cl)cc3)c(C(=O)O)c2)cc1` [Example 3:2, 5-{4-[(4-Chlorophenyl)(methyl)amino]benzoyl}-2-(4-chlorophenylsulfonyl)benzoic acid], for which the inhibition at 10 µM came out at 98% and the IC50 worked out at 0.635 µM.
Consider `O=C(c1ccc(Sc2ccc(Br)cc2)c(C(=O)O)c1)c1ccc(N(CC2CC2)c2ccc(Cl)cc2)cn1` [2:17, 2-(4-Bromophenylsulfanyl)-5-{5-[(4-chlorophenyl)cyclopropylmethyl-amino]pyridine-2-carbonyl}benzoic acid], for which the 50% inhibitory concentration (IC50) was 0.102 µM.
On the same count and under the same terms, to `CCCCCCSc1cc(C(=O)O)cc(C(=O)c2ccc(N(C)c3ccc(Cl)cc3)cn2)c1` [2:23, 3-{5-[(4-Chlorophenyl)methylamino]pyridine-2-carbonyl}-5-(1-hexyl)-sulfanylbenzoic acid] belongs 0.215 µM.
Same read-out and setting: to `CCCCCC[S+]([O-])c1ccc(C(=O)c2ccc(N(CC3CC3)c3ccc(Cl)cc3)cn2)cc1C(=O)O` (centres unmarked) [1:16, 5-{5-[(4-Chlorophenyl)cyclopropylmethylamino]pyridine-2-carbonyl}-2-(1-hexyl-sulfinyl)benzoic acid] belongs 0.035 µM.
Consider `CCCCCCS(=O)(=O)c1ccc(C(=O)c2ccc(N(C)c3ccc(Cl)cc3)cc2)cc1C(=O)O` [Example 3:1, 5-{4-[(4-Chlorophenyl)(methyl)amino]benzoyl}-2-(1-hexylsulfonyl)benzoic acid], for which the inhibition at 10 µM is 97% and the IC50 turned out to be 0.398 µM.
